In the assay the test system is human cervix cancer cells Hela. Briefly: Plk Cell Proliferation Inhibition Assay (CCK8, 72 hours). Format: cell-based. The note with it: Hela cells highly expressing Plk. The text has this: The following in vitro assay is to determine the activity of the compounds of the present invention for inhibiting the proliferation of human cervix cancer cells Hela, which has high expression of Plk.
The in vitro cellular assay described here is to determine the activity of the tested compounds for inhibiting the proliferation of cancer cells, which has high expression of Plk. The activity is represented by the […]. The general procedures for the assay are given as follows: The Hela cells highly expressing Plk (Institute of biochemistry and cell biology) were seeded to 96-well cell culture plate at a suitable concentration (exp 3000 cells/ml medium). The cells then were cultured in carbon dioxide (CO2) incubator and grew overnight. Then, the cell culture medium was replaced by fresh one with tested compounds added in it at serial concentrations (general 7 to 9 concentrations). Then the cells were put back to the incubator and cultured for continuous 72 hours. 72 hours later, the activity of the tested compounds for inhibiting the cell proliferation was determined by using CCK8 (cell counting kit-8, Dojindo, NO:CK04) method. IC50 value on tested cells were calculated by the data of inhibition rates of serial concentrations of the tested compounds.
In the case of `CC[C@@H]1C(=O)N(C)c2cnc(Nc3ccc(C(=O)N[C@@H]4C[C@H]5CCN(C)C[C@H]5C4)c4c3OCC4)nc2N1C1CCCC1` [Example 14, (cis-endo)-N-[2-Methyl-1,3,3a,4,5,6,7,7a-octahydrocyclopenta[c]pyridin-6-yl]-7-[[(7R)-8-cyclopentyl-7-ethyl-5-methyl-6-oxo-7H-pteridin-2-yl]amino]-2,3-dihydrobenzofuran-4-carboxamide], the IC50 was determined as 1 nM. In the case of `CC[C@@H]1C(=O)N(C)c2cnc(Nc3ccc(C(=O)N[C@H]4CC[C@H](N5CCN(CC6CC6)CC5)CC4)c4c3OC(C)(C)C4)nc2N1C1CCCC1` [Example 16, 7-[[(7R)-8-Cyclopentyl-7-ethyl-5-methyl-6-oxo-7H-pteridin-2-yl]amino]-N-[(trans)-4-[4-(cyclopropylmethyl)piperazin-1-yl]cyclohexyl]-2,2-dimethyl-3H-benzofuran-4-carboxamide] it was 30 nM; in that of `CC[C@@H]1C(=O)N(C)c2cnc(Nc3ccc(C(=O)NC[C@@H](O)CN4CCN(C)CC4)c4c3OC(C)(C)C4)nc2N1C1CCCC1` [Example 20, 7-[[(7R)-8-Cyclopentyl-7-ethyl-5-methyl-6-oxo-7H-pteridin-2-yl]amino]-N-[(2R)-3-(4-methylpiperazin-1-yl)-2-hydroxy-propyl]-2,2-dimethyl-3H-benzofuran-4-carboxamide], 8 nM.

For the compound `CC[C@@H]1C(=O)N(C)c2cnc(Nc3ccc(C(=O)N[C@H]4CC[C@H](N5CCN(C)CC5)CC4)c4c3OC(C)(C)C4)nc2N1C1CCCC1` [Example 17, 7-[[(7R)-8-Cyclopentyl-7-ethyl-5-methyl-6-oxo-7H-pteridin-2-yl]amino]-2,2-dimethyl-N-[(trans)-4-(4-methylpiperazin-1-yl)cyclohexyl]-3H-benzofuran-4-carboxamide], the IC50 came out at 10 nM. In the case of `CC[C@@H]1C(=O)N(C)c2cnc(Nc3ccc(C(=O)NC[C@H]4CN5CCC[C@H]5CO4)c4c3OCC4)nc2N1C1CCCC1` [Example 26, N-[[(3S,8aS)-3,4,6,7,8,8a-Hexahydro-1H-pyrrolo[2,1-c][1,4]oxazin-3-yl]methyl]-7-[[(7R)-8-cyclopentyl-7-ethyl-5-methyl-6-oxo-7H-pteridin-2-yl]amino]-2,3-dihydrobenzofuran-4-carboxamide] it was 3 nM. In the case of `CC[C@@H]1C(=O)N(C)c2cnc(Nc3ccc(C(=O)NC[C@H](O)CN4CCN(C)CC4)c4c3OCC4)nc2N1C(C)C` [Example 32, 7-[[(7R)-7-Ethyl-8-isopropyl-5-methyl-6-oxo-7H-pteridin-2-yl]amino]-N-[(2S)-2-hydroxy-3-(4-methylpiperazin-1-yl)propyl]-2,3-dihydrobenzofuran-4-carboxamide], the IC50 turned out to be 9 nM. Under `CC[C@@H]1C(=O)N(C)c2cnc(Nc3ccc(C(=O)NC[C@H](O)CN4CCN(C)CC4)c4c3OCC4)nc2N1C1CCCC1` [Example 8, 7-[[(7R)-8-Cyclopentyl-7-ethyl-5-methyl-6-oxo-7H-pteridin-2-yl]amino]-N-[(2S)-2-hydroxy-3-(4-methylpiperazin-1-yl)propyl]-2,3-dihydrobenzofuran-4-carboxamide] stands 3 nM. In the case of `CC[C@@H]1C(=O)N(C)c2cnc(Nc3ccc(C(=O)NCC4CN(C)CCO4)c4c3OCC4)nc2N1C1CCCC1` (stereo partly drawn) [Example 2, 7-[[(7R)-8-cyclopentyl-7-ethyl-5-methyl-6-oxo-7H-pteridin-2-yl]amino]-N-[(4-methylmorpholin-2-yl)methyl]-2,3-dihydrobenzofuran-4-carboxamide] it was 8 nM; in that of `CC[C@@H]1C(=O)N(C)c2cnc(Nc3ccc(C(=O)N[C@H]4C[C@@H]5CN(CC6CC6)C[C@@H]5C4)c4c3OCC4)nc2N1C1CCCC1` [Example 13, (cis-endo)-N-[2-(Cyclopropylmethyl)-3,3a,4,5,6,6a-hexahydro-1H-cyclopenta[c]pyrrol-5-yl]-7-[[(7R)-8-cyclopentyl-7-ethyl-5-methyl-6-oxo-7H-pteridin-2-yl]amino]-2,3-dihydrobenzofuran-4-carboxamide], 1 nM.

In turn, `CC[C@@H]1C(=O)N(C)c2cnc(Nc3ccc(C(=O)N[C@H]4CC[C@@H](N5CCN(CC6CC6)CC5)CC4)c4c3OCC4)nc2N1C(C)C` [Example 44, N-[(cis)-4-[4-(Cyclopropylmethyl)piperazin-1-yl]cyclohexyl]-7-[[(7R)-7-ethyl-8-isopropyl-5-methyl-6-oxo-7H-pteridin-2-yl]amino]-2,3-dihydrobenzofuran-4-carboxamide] displayed an IC50 of 5 nM.

Compound `CC[C@@H]1C(=O)N(C)c2cnc(Nc3ccc(C(=O)NC[C@@H](CN4CCN(CC5CC5)CC4)OC)c4c3OCC4)nc2N1C(C)C` [Example 36, N-[(2S)-3-[4-(Cyclopropylmethyl)piperazin-1-yl]-2-methoxy-propyl]-7-[[(7R)-7-ethyl-8-isopropyl-5-methyl-6-oxo-7H-pteridin-2-yl]amino]-2,3-dihydrobenzofuran-4-carboxamide] came in with an IC50 of 7 nM. `CC[C@@H]1C(=O)N(C)c2cnc(Nc3ccc(C(=O)NC[C@@H](O)CN4CCN(C)CC4)c4c3OCC4)nc2N1C(C)C` [Example 33, 7-[[(7R)-7-Ethyl-8-isopropyl-5-methyl-6-oxo-7H-pteridin-2-yl]amino]-N-[(2R)-2-hydroxy-3-(4-methylpiperazin-1-yl)propyl]-2,3-dihydrobenzofuran-4-carboxamide] came in with an IC50 of 7 nM. In the case of `CC[C@@H]1C(=O)N(C)c2cnc(Nc3ccc(C(=O)NC[C@@H]4CN5CCC[C@@H]5CO4)c4c3OCC4)nc2N1C1CCCC1` [Example 28, N-[[(3R,8aR)-3,4,6,7,8,8a-Hexahydro-1H-pyrrolo[2,1-c][1,4]oxazin-3-yl]methyl]-7-[[(7R)-8-cyclopentyl-7-ethyl-5-methyl-6-oxo-7H-pteridin-2-yl]amino]-2,3-dihydrobenzofuran-4-carboxamide] it was 3 nM; in that of `CC[C@@H]1C(=O)N(C)c2cnc(Nc3ccc(C(=O)NC[C@H](O)CN4CCN(CC5CC5)CC4)c4c3OCC4)nc2N1C1CCCC1` [Example 7, 7-[[(7R)-8-Cyclopentyl-7-ethyl-5-methyl-6-oxo-7H-pteridin-2-yl]amino]-N-[(2S)-3-[4-(cyclopropylmethyl)piperazin-1-yl]-2-hydroxy-propyl]-2,3-dihydrobenzofuran-4-carboxamide], 3 nM; in that of `CC[C@@H]1C(=O)N(C)c2cnc(Nc3ccc(C(=O)N[C@H]4C[C@@H]5CN(CC6CC6)C[C@@H]5C4)c4c3OC(C)(C)C4)nc2N1C1CCCC1` [Example 10, N-[(cis-endo)-2-(Cyclopropylmethyl)-3,3a,4,5,6,6a-hexahydro-1H-cyclopenta[c]pyrrol-5-yl]-7-[[(7R)-8-cyclopentyl-7-ethyl-5-methyl-6-oxo-7H-pteridin-2-yl]amino]-2,2-dimethyl-3H-benzofuran-4-carboxamide], 5 nM. `CC[C@@H]1C(=O)N(C)c2cnc(Nc3ccc(C(=O)NC[C@@H](CN4CCN(CC5CC5)CC4)OC)c4c3OCC4)nc2N1C1CCCC1` [Example 35, 7-[[(7R)-8-Cyclopentyl-7-ethyl-5-methyl-6-oxo-7H-pteridin-2-yl]amino]-N-[(2S)-3-[4-(cyclopropylmethyl)piperazin-1-yl]-2-methoxy-propyl]-2,3-dihydrobenzofuran-4-carboxamide]: half-maximal inhibition (IC50) was put at 2 nM. Under `CC[C@@H]1C(=O)N(C)c2cnc(Nc3ccc(C(=O)NC[C@@H]4CN(C)CCO4)c4c3OCC4)nc2N1C1CCCC1` [Example 15, 7-[[(7R)-8-Cyclopentyl-7-ethyl-5-methyl-6-oxo-7H-pteridin-2-yl]amino]-N-[[(2R)-4-methylmorpholin-2-yl]methyl]-2,3-dihydrobenzofuran-4-carboxamide] stands 3 nM. In the case of `CC[C@@H]1C(=O)N(C)c2cnc(Nc3ccc(C(=O)N[C@@H]4C[C@@H]5CN(C)C[C@@H]5C4)c4c3OC(C)(C)C4)nc2N1C1CCCC1` [Example 6, (cis-exo)-N-[2-Methyl-3,3a,4,5,6,6a-hexahydro-1H-cyclopenta[c]pyrrol-5-yl]-7-[[(7R)-8-cyclopentyl-7-ethyl-5-methyl-6-oxo-7H-pteridin-2-yl]amino]-2,2-dimethyl-3H-benzofuran-4-carboxamide] it was 2 nM.

Regarding `CC[C@@H]1C(=O)N(C)c2cnc(Nc3ccc(C(=O)NC[C@@H](CN4CCN(C)CC4)OC)c4c3OCC4)nc2N1C(C)C` [Example 39, 7-[[(7R)-7-Ethyl-8-isopropyl-5-methyl-6-oxo-7H-pteridin-2-yl]amino]-N-[(2S)-2-methoxy-3-(4-methylpiperazin-1-yl)propyl]-2,3-dihydrobenzofuran-4-carboxamide], inhibition was half-maximal at 6 nM (IC50).

`CC[C@@H]1C(=O)N(C)c2cnc(Nc3ccc(C(=O)NC4CCN(C)CC4)c4c3OC(C)(C)C4)nc2N1C1CCCC1` [Example 4, 7-[[(7R)-8-Cyclopentyl-7-ethyl-5-methyl-6-oxo-7H-pteridin-2-yl]amino]-2,2-dimethyl-N-(1-methyl-4-piperidyl)-3H-benzofuran-4-carboxamide] returned an IC50 of 2 nM.

As to `CC[C@@H]1C(=O)N(C)c2cnc(Nc3ccc(C(=O)NC[C@H]4CN5CCC[C@@H]5CO4)c4c3OCC4)nc2N1C1CCCC1` [Example 27, N-[[(3S,8aR)-3,4,6,7,8,8a-Hexahydro-1H-pyrrolo[2,1-c][1,4]oxazin-3-yl]methyl]-7-[[(7R)-8-cyclopentyl-7-ethyl-5-methyl-6-oxo-7H-pteridin-2-yl]amino]-2,3-dihydrobenzofuran-4-carboxamide], the IC50 was found to be 1 nM.
